Source: patent US20070149481A1, “N,n-bridged, nitrogen-substituted carbacyclic indolocarbazoles as protein kinase inhibitors” (priority 2002, published 2007)
Values joined by “and” are separate entries in the source; they are usually repeats but may differ in a detail not shown here. Equal values may be shown once.

Tests used:
His tagged ERK2 = His tagged ERK2 (Homo sapiens, UniProt P28482); test: Extracellular signal Regulated Kinase 2 inhibition assay (ERK2), radioactive filtermat format; type: biochemical; conditions: 10 μM compound
Experimental: (§1) The ERK2 kinase activity assay utilizes a radioactivity-based format in a 96-well PCR plate with radioactive readout. The ERK2 activity was assayed in a 25 μL assay mixture containing 25 mM HEPES (pH 7.0), 250 μM ATP, 1 mM MgCl2, 1 mM DTT, 2% DMSO, 150 ng/mL Myelin Basic Protein (MBP, Sigma M-1891), and 13.6 ng/mL His tagged ERK2 (specific activity=38.1 nmol/min*mg). Compounds were screened for inhibition of the ERK2 kinase activity at a concentration of 10 μM. The kinase reaction was allowed to proceed at 37° C. for 30 minutes, then reaction was stopped by the addition of 5 μl of 0.5M EDTA (pH 8). 15 μL of each solution were then spotted onto the corresponding square of a filtermat (8×12 glassfibre mat 90×120 mm, PE-Wallac 1450-421). The filtermat was allowed to dry and washed once with 10% TCA, 2% PPA, 500 mM NaCl each for 30 minutes at rt. Two further washings in 10% TCA and 2% PPA for 30 minutes were performed, then a final 30 minute wash in 99% EtOH at rt was done and the filtermat was air dried. The dry filtermat was then placed in a sample bag with a Meltilex sheet (Melt-on scintillator sheets 73×109 mm, PE-Wallac 1450-441 for filtermat A) over the filtermat. The bag was trimmed to fit into the microplate heatsealer (PE-Wallac 1495-021). The heatsealer is used to melt the Meltilex on the filtermat. The bag containing the filtermat and the melted Meltilex was then placed into a filter cassette and counted using the Microbeta Jet Scintillation and Luminescence Counter PE-Wallac 1450.

[1] = target: T1, PKA (catalytic subunit, bovine heart) (Bos taurus, UniProt P00517); test: Protein Kinase A inhibition assay (PKA); type: biochemical; conditions: 10 μM compound
T1 construct: PKA (catalytic subunit, bovine heart, Calbiochem 539486); purchased Calbiochem 539486; host or cells: bovine heart (tissue-derived)
Experimental: as §1
The PKA kinase activity assay utilizes a radioactivity-based format in a 96-well PCR plate with radioactive readout. The PKA activity was assayed in a 25 μL assay mixture containing 25 mM HEPES (pH 7.0), 250 μM ATP, 10 mM MgCl2, 1 mM DTT, 1 mM EDTA (pH 8). 2% DMSO. 250 ng/mL Histone H2B (Roche 223 514), and 2 ng/mL PKA (catalytic subunit, bovine heart, Calbiochem 539486, specific activity=1170 pmol/min*μg). Compounds were screened for inhibition of the PKA kinase activity at a concentration of 10 μM. The kinase reaction was allowed to proceed at 37° C. for 30 minutes, then the reaction was stopped by addition of 5 μL of 0.5M EDTA (pH 8). The remainder of the protocol is identical to the one reported for ERK2.

PKC (rat brain) = test: Protein Kinase C inhibition assay (PKC); type: biochemical; conditions: 10 μM compound
Experimental: as §1
The PKC kinase activity assay utilizes a radioactivity-based format in a 96-well PCR plate with radioactive readout. The PKC activity was assayed in a 25 μL assay mixture containing 25 mM HEPES (pH 7.0), 250 μM ATP, 10 mM MgCl2, 1 mM DTT, 1 mM EDTA (pH 8), 2 mM CaCl2, 2% DMSO, 250 ng/mL Histone H1 (Roche 1 004 875), and 165 ng/mL PKC (rat brain, Calbiochem 539494, specific activity=1600 nmol/min*mg). Compounds were screened for inhibition of the PKC kinase activity at a concentration of 10 μM. The kinase reaction was allowed to proceed at 37° C. for 30 minutes, then the reaction was stopped by addition of 5 μL of 0.5M EDTA (pH 8). The remainder of the protocol is identical to the one reported for ERK2.

GSK3β = target: T2, GSK3β (Homo sapiens, UniProt P49841); test: Glycogen Synthase Kinase 3β inhibition assay (GSK3β); type: biochemical; conditions: 10 μM compound
T2 construct: purchased Upstate Discovery
Experimental: The GSK3β kinase activity assay utilizes a radioactivity-based format in a 96-well PCR plate with radioactive readout. The GSK3 β activity was assayed in a 25 μL assay mixture containing 8 mM HEPES (pH 7.0), 250 μM ATP, 0.2 mM EDTA (pH 8), 2% DMSO, 250 ng/mL Myelin Basic Protein (MBP, Sigma M-1891), and 12 ng/mL GSK3β (Upstate Discovery, specific activity=607 nmol/min*GS2 peptide, concentration of 6.05 mg/mL). Compounds were screened for inhibition of the GSK3β kinase activity at a concentration of 10 μM. The kinase reaction was allowed to proceed at 37° C. for 30 minutes, then the reaction was stopped by addition of 5 μL of 0.5M EDTA (pH 8).

[2] = Solubility of free base NAD0241 and its hydrochloride salt in 99/1 water/DMSO; type: physicochemical; conditions: 18 hours equilibration at room temperature, duplicate experiments
Experimental: Stock solutions of NAD0241 (100 mM) and of its hydrochloride salt ([…]) in DMSO (UV-grade) were prepared freshly before the experiment and further diluted to a final concentration of 10 mM. These stock solutions in 100% DMSO were diluted with water (UV grade) to provide five 99/1 water/DMSO samples with varying concentrations of the compound (1000, 500, 100, 50 and 10 μM).
Each sample was thoroughly mixed by rigorous vortexing (30 seconds) followed by equilibration for 18 hours at room temperature. A […] for each sample was transferred into 1.5 mL polypropylene tubes and centrifuged for 30 minutes at room temperature at 16000 g in a fixed angle tabletop centrifuge (Heraeus Biofuge pico equipped with #3325 rotor). The supernatant was pipetted into a quartz glass cuvette and UV-absorption (322 nm) was measured in a UV spectrophotometer (Varian Cary 50). Each experiment was run in duplicate.

T2 sequence (P49841 whole entry, species assumed): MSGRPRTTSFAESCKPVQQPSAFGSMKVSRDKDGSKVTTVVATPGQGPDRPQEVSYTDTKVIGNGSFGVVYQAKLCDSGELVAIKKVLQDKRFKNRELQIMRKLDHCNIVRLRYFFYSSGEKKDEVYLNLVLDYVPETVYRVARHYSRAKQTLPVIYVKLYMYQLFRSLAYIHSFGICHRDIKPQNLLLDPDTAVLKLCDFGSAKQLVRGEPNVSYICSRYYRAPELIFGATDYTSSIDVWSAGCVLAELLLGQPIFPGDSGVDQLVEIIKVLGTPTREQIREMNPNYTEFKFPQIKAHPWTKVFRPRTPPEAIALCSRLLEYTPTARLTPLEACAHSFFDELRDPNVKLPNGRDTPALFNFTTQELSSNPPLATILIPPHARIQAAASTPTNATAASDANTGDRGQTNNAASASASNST
Chain of His tagged ERK2 (P28482 whole entry): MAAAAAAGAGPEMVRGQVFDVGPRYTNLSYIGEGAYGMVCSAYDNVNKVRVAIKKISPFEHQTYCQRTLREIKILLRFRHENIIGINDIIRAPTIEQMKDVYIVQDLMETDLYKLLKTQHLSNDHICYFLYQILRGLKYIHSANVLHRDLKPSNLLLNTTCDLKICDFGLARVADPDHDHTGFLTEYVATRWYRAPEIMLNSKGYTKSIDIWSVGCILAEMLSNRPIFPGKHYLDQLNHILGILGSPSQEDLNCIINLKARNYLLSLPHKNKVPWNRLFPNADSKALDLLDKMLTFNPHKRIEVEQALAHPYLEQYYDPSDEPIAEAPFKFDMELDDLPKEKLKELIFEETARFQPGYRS

Structure (SMILES)	inhibition at 10 µM (His tagged ERK2)	inhibition at 10 µM [1]	% Inhibition PKC (PKC (rat brain))	inhibition at 10 µM (GSK3β)	% Inhibition ERK2 (His tagged ERK2)	% Inhibition PKA [1]	% Inhibition GSK3β (GSK3β)	solubility limit in water containing 1% DMSO [2]
CCOC(=O)[C@]1(N)CC2CC1n1c3ccccc3c3c4c(c5c6ccccc6n2c5c31)C(=O)NC4=O (stereo partly shown) [Compound 6]	61.3%	59.4%	83.97%	94.2%				
COc1ccc(CN2C(=O)c3c(c4c5ccccc5n5c4c4c3c3ccccc3n4C3CC5[C@](N)(C#N)C3)C2=O)cc1 (stereo partly shown) [Compound 28]	48.7%	< 10%	28.19%	25.6%				
CCCCNC1CC2CC1n1c3ccccc3c3c4c(c5c6ccccc6n2c5c31)C(=O)N(Cc1ccc(OC)cc1)C4=O (stereo not shown) [Compound 30]			29.04%		44.61%	NA (NA = <10% inhibition)	NA (NA = <10% inhibition)	
Cl.NC(=O)C1(N)CC2CC1n1c3ccccc3c3c4c(c5c6ccccc6n2c5c31)C(=O)NC4=O (stereo not shown) [NAD0241-hydrochloride salt]								170 mgL^−1 and 214 mgL^−1
COc1ccc(CN2C(=O)c3c(c4c5ccccc5n5c4c4c3c3ccccc3n4C3CC5[C@@H](N)C3)C2=O)cc1 (mixture of isomers) [Compound 1]	30.9%	17.6%	49.73%	< 10%				
N#CC1(NC(=O)C(F)(F)F)CC2CC1n1c3ccccc3c3c4c(c5c6ccccc6n2c5c31)C(=O)NC4=O (stereo not shown) [Compound 32]			49.33%		44.03%	23.81%	72.20%	
COc1ccc(CN2C(=O)c3c(c4c5ccccc5n5c4c4c3c3ccccc3n4C3CC5[C@@H](N4CCOCC4)C3)C2=O)cc1 (stereo partly shown) [Compound 26]	67.6%	< 10%	10.18%	< 10%				
N#C[C@]1(N)CC2CC1n1c3ccccc3c3c4c(c5c6ccccc6n2c5c31)C(=O)NC4=O (mixture of isomers) [Compound 4]	94.1%	89.6%	78.10%	98.5%				
COc1ccc(CN2C(=O)c3c(c4c5ccccc5n5c4c4c3c3ccccc3n4C3CC5C(N)(C(=O)O)C3)C2=O)cc1 (stereo not shown) [Compound 36]			65.10%		73.44%	21.80%	82.71%	
[N-]=[N+]=NC1C2CC([C@H]1O)n1c3ccccc3c3c4c(c5c6ccccc6n2c5c31)C(=O)NC4=O (mixture of isomers) [Compound 15]	94.6%	79.8%	88.68%	96.9%				
